Source: ChEMBL document CHEMBL6121013, “Novel antimalarial 3-substituted quinolones isosteres with improved pharmacokinetic properties” (Eur J Med Chem, 2025)
≈ marks a conversion by molar mass, not a printed value.

What was measured:
Plasmodium falciparum = test: Antimalarial activity against chloroquine-resistant Plasmodium falciparum W2 assessed as reduction in malarial growth incubated for 72 hrs by Spectrophotometric analysis; type: functional, organism-based; conditions: W2, 72 h
[1] = Lipophilicity, logD of the compound at pH 7.4 by shake flask method; type: physicochemical; conditions: buffer
[2] = Solubility of the compound at pH 7.4; type: physicochemical; conditions: buffer
[3] = Plasma protein binding in human assessed as free fraction incubated for 6 hrs by LC-MS/MS analysis; type: ADME, cell-free
[4] = Metabolic stability in rat hepatocytes assessed as intrinsic clearance measured at 10^6 cells incubated for 5 to 120 mins by LC-MS/MS analysis; type: ADME, cell-based, Hepatocyte; conditions: time 5-120 min, read-out: CLH
[5] = Metabolic stability in human liver microsomes assessed as intrinsic clearance incubated for 0.5 to 30 mins by LC-MS/MS analysis; type: ADME, Microsome; conditions: time 0.5-30 min, read-out: CLH
[6] = Clearance in male CD1 mouse at 2 mg/kg, iv by LC-MS analysis; type: ADME, organism-based; conditions: in vivo
[7] = Half life in male CD1 mouse at 2 mg/kg, iv by LC-MS analysis; type: ADME, organism-based; conditions: in vivo
[8] = Cmax in male CD1 mouse at 50 mg/kg, po by LC-MS analysis; type: ADME, organism-based; conditions: in vivo
[9] = AUC in male CD1 mouse at 50 mg/kg, po by LC-MS analysis; type: ADME, organism-based; conditions: in vivo
[10] = Oral bioavailability in male CD1 mouse at 50 mg/kg by LC-MS analysis; type: ADME, organism-based; conditions: in vivo
[11] = Clearance in mouse administered intravenously; type: ADME; conditions: in vivo, route iv

Row | SMILES | IC50 (Plasmodium falciparum) [nM] | logD [1] | solubility [2] [µM] | fraction unbound at 6 h [3] | hepatocyte CLint [4] [µL/min/1e6 cells] | microsomal CLint [5] [µL/min/mg] | further results
1 | Cc1[nH]c2c(c(=O)c1-c1ccc(F)cc1)COCC2 | > 10000 | – | – | – | – | – | –
2 | Cc1[nH]c2c(c(=O)c1-c1ccc(Oc3ccc(OC(F)(F)F)cc3)cc1)COCC2 | 528 | 3.8 | 140 (≈ 58.4 µg/mL) | 0.0065 | 2.63 | < 3 | –
3 | Cc1[nH]c2c(c(=O)c1-c1ccc(Oc3ccc(OC(F)(F)F)cc3)cc1)CC(F)(F)CC2 | 285 | 3.9 | 2 (≈ 0.903 µg/mL) | 0.0029 | < 1 | < 3 | –
4 | Cc1[nH]c2c(c(=O)c1-c1ccc(Oc3ccc(OC(F)(F)F)cc3)cc1)CCOC2 | 446 | – | – | – | – | – | –
5 | Cc1[nH]c2c(c(=O)c1-c1ccc(F)cc1)CCOC2 | 8410 | – | – | – | – | – | –
6 | Cc1[nH]c2c(c(=O)c1-c1ccc(Oc3ccc(OC(F)(F)F)cc3)cc1)CCCCC2 | 1520 | – | – | – | – | – | –
7 | Cc1[nH]c2c(c(=O)c1-c1ccc(-c3ccc(OC(F)(F)F)cc3)nc1)COCC2 | > 10000 | – | – | – | – | – | –
8 | Cc1[nH]c2c(c(=O)c1-c1ccc(Cl)cc1)CCCCC2 | 3800 | – | – | – | – | – | –
9 | Cc1[nH]c2c(c(=O)c1-c1ccc(Cl)cc1)CC(F)(F)CC2 | 235 | 2.7 | 20 (≈ 6.19 µg/mL) | 0.12 | < 1 | < 3 | clearance [6]: 0.47 mL/min/kg; half-life [7]: 6.39 h; Cmax [8]: 28900 ng/mL; AUC [9]: 405 µg·h/mL; bioavailability [10]: 23.4%
10 | Cc1[nH]c2c(c(=O)c1-c1ccc(Cl)cc1)COCC2 | > 10000 | – | – | – | – | – | –
11 | Cc1[nH]c2c(c(=O)c1-c1ccc(Cl)cc1)CCCC2 | 956 | – | – | – | – | – | –
12 | Cc1[nH]c2c(c(=O)c1-c1ccc(-c3ccc(OC(F)(F)F)cc3)nc1)CCCC2 | 1150 | – | – | – | – | – | –
13 | Cc1[nH]c2c(c(=O)c1-c1ccc(Oc3ccc(OC(F)(F)F)cc3)cc1)CCCC2 | 157 | 4.5 | 0.2 (≈ 0.0831 µg/mL) | 0.0013 | 9.05 | < 3 | –
14 | Cc1[nH]c2ccccc2c(=O)c1-c1ccc(Oc2ccc(OC(F)(F)F)cc2)cc1 | 92 | 4.9 | 3 (≈ 1.23 µg/mL) | 0.0009 | 6.17 | < 3 | –
15 | Cc1[nH]c2c(c(=O)c1-c1ccc(F)cc1)CCCCC2 | 4970 | – | – | – | – | – | –
16 | Cc1[nH]c2c(c(=O)c1-c1ccc(F)cc1)CCCC2 | 4800 | – | – | – | – | – | –
17 | Cc1[nH]c2c(c(=O)c1-c1ccc(OC(F)(F)F)cc1)CCCC2 | 354 | 3.3 | 14 (≈ 4.53 µg/mL) | 0.15 | 1.14 | 25.6 | –
18 | COc1cc2[nH]c(C)c(-c3ccc(Oc4ccc(OC(F)(F)F)cc4)cc3)c(=O)c2cc1Cl | – | – | – | – | – | – | clearance [11]: 0.7 mL/min/kg
19 | Cc1[nH]c2c(c(=O)c1-c1ccc(F)cc1)CC(F)(F)CC2 | 597 | 1.7 | 68 (≈ 19.9 µg/mL) | 0.3 | < 1 | < 3 | –
